Reference: article PMC6409085, “Three odorant-binding proteins are involved in the behavioral response of Sogatella furcifera to rice plant volatiles” (PeerJ, 2019)
“And” between values parts separate entries of the source, which are not always exact repeats. Identical values can stand only once.

Experiments:
[1] = target: SfurOBP1 (Sogatella furcifera, UniProt V5T8N5); assay: biochemical; assay type: binding; conditions: for Fluorescence competitive binding assay, fluorescence intensity: OBP1, three replicate columns
Sequence of SfurOBP1 (V5T8N5 entry or part of it): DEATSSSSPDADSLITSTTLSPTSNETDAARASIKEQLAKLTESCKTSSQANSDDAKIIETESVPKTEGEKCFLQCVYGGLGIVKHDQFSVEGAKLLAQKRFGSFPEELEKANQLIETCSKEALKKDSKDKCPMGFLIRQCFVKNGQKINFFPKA
Procedure, shortened: (§1)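 Fluorescence competitive binding with 1-NPN as reporter: 2.0 µM protein and 2.0 µM 1-NPN in 50 mM Tris-HCl pH 7.4, odorant added at 2–20 µM final. Excitation 337 nm, emission 390–490 nm read 2 min after addition, triplicates. Ki = IC50/(1 + [1-NPN]/K1-NPN).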

[2] = target: SfurOBP11 (Sogatella furcifera, UniProt V5T6E3); assay: biochemical; assay type: binding
Sequence of SfurOBP11 (V5T6E3 entry or part of it): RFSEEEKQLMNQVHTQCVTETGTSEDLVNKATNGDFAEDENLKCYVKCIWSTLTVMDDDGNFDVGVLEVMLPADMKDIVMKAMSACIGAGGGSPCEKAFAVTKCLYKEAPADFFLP
Procedure, shortened: as §1

[3] = target: SfurOBP2 (Sogatella furcifera, UniProt V5T759); assay: biochemical; assay type: binding
Sequence of SfurOBP2 (V5T759 entry or part of it): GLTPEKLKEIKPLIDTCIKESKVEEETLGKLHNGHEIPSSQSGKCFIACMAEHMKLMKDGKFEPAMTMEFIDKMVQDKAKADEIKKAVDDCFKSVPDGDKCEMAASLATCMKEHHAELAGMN
Procedure, shortened: as §1

[4] = target: SfurOBP3 (Sogatella furcifera, UniProt V5T818); assay: biochemical; assay type: binding; conditions: for Fluorescence competitive binding assay, fluorescence intensity: OBP3, three replicate columns
Sequence of SfurOBP3 (V5T818 entry or part of it): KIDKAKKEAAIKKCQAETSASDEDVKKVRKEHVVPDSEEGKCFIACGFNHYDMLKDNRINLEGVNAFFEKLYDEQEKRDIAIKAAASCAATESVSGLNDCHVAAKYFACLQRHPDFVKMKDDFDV
Procedure, shortened: as §1

[5] = tested on: S. furcifera adults; assay: Y-tube olfactometer behavioral trials; assay type: in vivo, Sogatella furcifera; conditions: odorant 50 µL/L vs hexane; adults
Procedure, shortened: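 Single S. furcifera adults (2 days post-emergence, starved 0.5 h) chose between odorant (100 µL of 50 µL/L on filter paper) and hexane control in a glass Y-tube, charcoal-filtered humidified air 300 mL/min per arm, 25 ± 1 °C, 50% RH. Choice scored if insect passed half an arm and stayed >1 min within 10 min; 45 insects per compound, chi-squared test.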

## COC(=O)c1ccccc1 [benzoic acid methylester]
[1]
  IC50: > 20 µM
[1]; ligand concentration 2 (μM)
  Fluorescence competitive binding assay, fluorescence intensity: 5064 and 4951 and 5158
[1]; ligand concentration 4 (μM)
  Fluorescence competitive binding assay, fluorescence intensity: 5979 and 6427 and 5531
[1]; ligand concentration 6 (μM)
  Fluorescence competitive binding assay, fluorescence intensity: 9023 and 8678 and 7700
[1]; ligand concentration 8 (μM)
  Fluorescence competitive binding assay, fluorescence intensity: 8709 and 6440 and 6910
[1]; ligand concentration 10 (μM)
  Fluorescence competitive binding assay, fluorescence intensity: 7708 and 6333 and 7083
[1]; ligand concentration 12 (μM)
  Fluorescence competitive binding assay, fluorescence intensity: 5895 and 6787 and 5523
[1]; ligand concentration 14 (μM)
  Fluorescence competitive binding assay, fluorescence intensity: 8915 and 6017 and 4981
[1]; ligand concentration 16 (μM)
  Fluorescence competitive binding assay, fluorescence intensity: 7008 and 5157 and 5392
[1]; ligand concentration 18 (μM)
  Fluorescence competitive binding assay, fluorescence intensity: 7131 and 8076 and 6232
[1]; ligand concentration 20 (μM)
  Fluorescence competitive binding assay, fluorescence intensity: 6422 and 6546 and 6873
[2]
  IC50: > 20 µM
[2]; ligand concentration 2, replicate 1
  Fluorescence intensity, fluorescence competitive binding assay, OBP11: 27311
[2]; ligand concentration 2, replicate 2
  Fluorescence intensity, fluorescence competitive binding assay, OBP11: 29257
[2]; ligand concentration 2, replicate 3
  Fluorescence intensity, fluorescence competitive binding assay, OBP11: 28341
[2]; ligand concentration 4, replicate 1
  Fluorescence intensity, fluorescence competitive binding assay, OBP11: 28195
[2]; ligand concentration 4, replicate 2
  Fluorescence intensity, fluorescence competitive binding assay, OBP11: 27454
[2]; ligand concentration 4, replicate 3
  Fluorescence intensity, fluorescence competitive binding assay, OBP11: 28935
[2]; ligand concentration 6, replicate 1
  Fluorescence intensity, fluorescence competitive binding assay, OBP11: 25204
[2]; ligand concentration 6, replicate 2
  Fluorescence intensity, fluorescence competitive binding assay, OBP11: 26496
[2]; ligand concentration 6, replicate 3
  Fluorescence intensity, fluorescence competitive binding assay, OBP11: 27787
[2]; ligand concentration 8, replicate 1
  Fluorescence intensity, fluorescence competitive binding assay, OBP11: 24731
[2]; ligand concentration 8, replicate 2
  Fluorescence intensity, fluorescence competitive binding assay, OBP11: 24972
[2]; ligand concentration 8, replicate 3
  Fluorescence intensity, fluorescence competitive binding assay, OBP11: 24489
[2]; ligand concentration 10, replicate 1
  Fluorescence intensity, fluorescence competitive binding assay, OBP11: 24285
[2]; ligand concentration 10, replicate 2
  Fluorescence intensity, fluorescence competitive binding assay, OBP11: 24217
[2]; ligand concentration 10, replicate 3
  Fluorescence intensity, fluorescence competitive binding assay, OBP11: 24352
[2]; ligand concentration 12, replicate 1
  Fluorescence intensity, fluorescence competitive binding assay, OBP11: 23537
[2]; ligand concentration 12, replicate 2
  Fluorescence intensity, fluorescence competitive binding assay, OBP11: 23314
[2]; ligand concentration 12, replicate 3
  Fluorescence intensity, fluorescence competitive binding assay, OBP11: 23760
[2]; ligand concentration 14, replicate 1
  Fluorescence intensity, fluorescence competitive binding assay, OBP11: 19900
[2]; ligand concentration 14, replicate 2
  Fluorescence intensity, fluorescence competitive binding assay, OBP11: 22587
[2]; ligand concentration 14, replicate 3
  Fluorescence intensity, fluorescence competitive binding assay, OBP11: 21306
[2]; ligand concentration 16, replicate 1
  Fluorescence intensity, fluorescence competitive binding assay, OBP11: 18401
[2]; ligand concentration 16, replicate 2
  Fluorescence intensity, fluorescence competitive binding assay, OBP11: 18544
[2]; ligand concentration 16, replicate 3
  Fluorescence intensity, fluorescence competitive binding assay, OBP11: 17724
[2]; ligand concentration 18, replicate 1
  Fluorescence intensity, fluorescence competitive binding assay, OBP11: 22003
[2]; ligand concentration 18, replicate 2
  Fluorescence intensity, fluorescence competitive binding assay, OBP11: 20975
[2]; ligand concentration 18, replicate 3
  Fluorescence intensity, fluorescence competitive binding assay, OBP11: 22765
[2]; ligand concentration 20, replicate 1
  Fluorescence intensity, fluorescence competitive binding assay, OBP11: 21640
[2]; ligand concentration 20, replicate 2
  Fluorescence intensity, fluorescence competitive binding assay, OBP11: 22200
[2]; ligand concentration 20, replicate 3
  Fluorescence intensity, fluorescence competitive binding assay, OBP11: 21920
[3]
  IC50: > 20 µM
[3]; ligand concentration 2 (unit not given), replicate column 1 of 3
  Fluorescence competitive binding assay, OBP2 (raw fluorescence reading): 20302
[3]; ligand concentration 2 (unit not given), replicate column 2 of 3
  Fluorescence competitive binding assay, OBP2 (raw fluorescence reading): 19349
[3]; ligand concentration 2 (unit not given), replicate column 3 of 3
  Fluorescence competitive binding assay, OBP2 (raw fluorescence reading): 19856
[3]; ligand concentration 4 (unit not given), replicate column 1 of 3
  Fluorescence competitive binding assay, OBP2 (raw fluorescence reading): 20922
[3]; ligand concentration 4 (unit not given), replicate column 2 of 3
  Fluorescence competitive binding assay, OBP2 (raw fluorescence reading): 22649
[3]; ligand concentration 4 (unit not given), replicate column 3 of 3
  Fluorescence competitive binding assay, OBP2 (raw fluorescence reading): 23660
[3]; ligand concentration 6 (unit not given), replicate column 1 of 3
  Fluorescence competitive binding assay, OBP2 (raw fluorescence reading): 19982
[3]; ligand concentration 6 (unit not given), replicate column 2 of 3
  Fluorescence competitive binding assay, OBP2 (raw fluorescence reading): 19598
[3]; ligand concentration 6 (unit not given), replicate column 3 of 3
  Fluorescence competitive binding assay, OBP2 (raw fluorescence reading): 20363
[3]; ligand concentration 8 (unit not given), replicate column 1 of 3
  Fluorescence competitive binding assay, OBP2 (raw fluorescence reading): 18016
[3]; ligand concentration 8 (unit not given), replicate column 2 of 3
  Fluorescence competitive binding assay, OBP2 (raw fluorescence reading): 17876
[3]; ligand concentration 8 (unit not given), replicate column 3 of 3
  Fluorescence competitive binding assay, OBP2 (raw fluorescence reading): 18155
[3]; ligand concentration 10 (unit not given), replicate column 1 of 3
  Fluorescence competitive binding assay, OBP2 (raw fluorescence reading): 17866
[3]; ligand concentration 10 (unit not given), replicate column 2 of 3
  Fluorescence competitive binding assay, OBP2 (raw fluorescence reading): 16967
[3]; ligand concentration 10 (unit not given), replicate column 3 of 3
  Fluorescence competitive binding assay, OBP2 (raw fluorescence reading): 17417
[3]; ligand concentration 12 (unit not given), replicate column 1 of 3
  Fluorescence competitive binding assay, OBP2 (raw fluorescence reading): 14659
[3]; ligand concentration 12 (unit not given), replicate column 2 of 3
  Fluorescence competitive binding assay, OBP2 (raw fluorescence reading): 16003
[3]; ligand concentration 12 (unit not given), replicate column 3 of 3
  Fluorescence competitive binding assay, OBP2 (raw fluorescence reading): 15331
[3]; ligand concentration 14 (unit not given), replicate column 1 of 3
  Fluorescence competitive binding assay, OBP2 (raw fluorescence reading): 15808
[3]; ligand concentration 14 (unit not given), replicate column 2 of 3
  Fluorescence competitive binding assay, OBP2 (raw fluorescence reading): 14578
[3]; ligand concentration 14 (unit not given), replicate column 3 of 3
  Fluorescence competitive binding assay, OBP2 (raw fluorescence reading): 16066
[3]; ligand concentration 16 (unit not given), replicate column 1 of 3
  Fluorescence competitive binding assay, OBP2 (raw fluorescence reading): 13829
[3]; ligand concentration 16 (unit not given), replicate column 2 of 3
  Fluorescence competitive binding assay, OBP2 (raw fluorescence reading): 13659
[3]; ligand concentration 16 (unit not given), replicate column 3 of 3
  Fluorescence competitive binding assay, OBP2 (raw fluorescence reading): 13740
[3]; ligand concentration 18 (unit not given), replicate column 1 of 3
  Fluorescence competitive binding assay, OBP2 (raw fluorescence reading): 13696
[3]; ligand concentration 18 (unit not given), replicate column 2 of 3
  Fluorescence competitive binding assay, OBP2 (raw fluorescence reading): 13929
[3]; ligand concentration 18 (unit not given), replicate column 3 of 3
  Fluorescence competitive binding assay, OBP2 (raw fluorescence reading): 14161
[3]; ligand concentration 20 (unit not given), replicate column 1 of 3
  Fluorescence competitive binding assay, OBP2 (raw fluorescence reading): 14205
[3]; ligand concentration 20 (unit not given), replicate column 2 of 3
  Fluorescence competitive binding assay, OBP2 (raw fluorescence reading): 14645
[3]; ligand concentration 20 (unit not given), replicate column 3 of 3
  Fluorescence competitive binding assay, OBP2 (raw fluorescence reading): 13761
[4]
  IC50: > 20 µM
[4]; ligand concentration 2
  Fluorescence competitive binding assay, fluorescence intensity: 65046 and 56813 and 65508
[4]; ligand concentration 4
  Fluorescence competitive binding assay, fluorescence intensity: 67380 and 59779 and 65465
[4]; ligand concentration 6
  Fluorescence competitive binding assay, fluorescence intensity: 60647 and 61139 and 65169
[4]; ligand concentration 8
  Fluorescence competitive binding assay, fluorescence intensity: 62761 and 59088 and 65223
[4]; ligand concentration 10
  Fluorescence competitive binding assay, fluorescence intensity: 58066 and 60267 and 58488
[4]; ligand concentration 12
  Fluorescence competitive binding assay, fluorescence intensity: 53979 and 46844 and 52174
[4]; ligand concentration 14
  Fluorescence competitive binding assay, fluorescence intensity: 52567 and 46884 and 49119
[4]; ligand concentration 16
  Fluorescence competitive binding assay, fluorescence intensity: 43090 and 45767 and 42573
[4]; ligand concentration 18
  Fluorescence competitive binding assay, fluorescence intensity: 48410 and 52387 and 52599
[4]; ligand concentration 20
  Fluorescence competitive binding assay, fluorescence intensity: 47608 and 41929 and 45047
[5]
  number of insects choosing hexane arm: 10
  number of insects choosing volatilies arm: 9
  number of insects failed (no choice): 20
